Measurements: US20250059183A1, “PYRIDINE[4,3-D]PYRIMIDINE COMPOUND AS TLR7/8 AGONIST” (SHANGHAI VISONPHARMA CO., LTD., priority 2021, published 2025)

Columns and labels:
[1] = target: T1, human TLR7 (Homo sapiens, UniProt Q9NYK1); assay: HEK-Blue hTLR7 SEAP reporter gene agonist assay; type: cell-based; details: HEK-Blue hTLR7 cells, 16 to 22 hours incubation
T1 construct: host or cells: HEK-Blue hTLR7 (HEK293-derived reporter cells)
T1 sequence (Q9NYK1 27-1049): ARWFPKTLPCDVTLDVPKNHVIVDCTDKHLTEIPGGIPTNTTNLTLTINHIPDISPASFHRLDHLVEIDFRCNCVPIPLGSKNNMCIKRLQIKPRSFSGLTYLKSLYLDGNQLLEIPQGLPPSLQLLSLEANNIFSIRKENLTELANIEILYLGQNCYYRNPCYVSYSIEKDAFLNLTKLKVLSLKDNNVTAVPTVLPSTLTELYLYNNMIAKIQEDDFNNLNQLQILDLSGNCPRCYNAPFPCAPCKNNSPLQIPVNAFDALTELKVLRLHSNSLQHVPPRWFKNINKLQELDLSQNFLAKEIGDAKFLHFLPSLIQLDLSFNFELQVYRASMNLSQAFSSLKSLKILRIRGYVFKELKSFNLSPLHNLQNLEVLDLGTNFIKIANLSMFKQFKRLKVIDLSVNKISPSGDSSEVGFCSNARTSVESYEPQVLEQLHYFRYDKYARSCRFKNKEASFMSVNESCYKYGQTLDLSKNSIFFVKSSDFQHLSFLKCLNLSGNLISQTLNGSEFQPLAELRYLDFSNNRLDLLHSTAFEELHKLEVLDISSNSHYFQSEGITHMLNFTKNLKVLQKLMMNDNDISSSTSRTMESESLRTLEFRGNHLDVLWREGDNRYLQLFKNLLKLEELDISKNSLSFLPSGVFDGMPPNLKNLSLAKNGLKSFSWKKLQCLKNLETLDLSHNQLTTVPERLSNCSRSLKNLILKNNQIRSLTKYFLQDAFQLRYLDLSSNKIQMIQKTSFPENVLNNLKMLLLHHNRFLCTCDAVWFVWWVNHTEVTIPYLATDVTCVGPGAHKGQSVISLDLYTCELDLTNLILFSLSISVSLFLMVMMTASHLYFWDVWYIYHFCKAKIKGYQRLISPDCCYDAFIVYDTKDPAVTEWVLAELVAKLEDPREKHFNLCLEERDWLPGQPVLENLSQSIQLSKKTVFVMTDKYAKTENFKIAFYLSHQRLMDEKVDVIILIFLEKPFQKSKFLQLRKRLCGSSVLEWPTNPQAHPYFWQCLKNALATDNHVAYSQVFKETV
Experimental: (§1) HEK-Blue™ cells that stably express human TLR7 or TLR8 are used to evaluate the agonistic activity of the compounds on TLR7 or TLR8, which is determined by the induction of the expression of SEAP reporter gene under the control of minimum IFN-β promoter fusion to 5×NF-κB and AP-1 binding sites. The assay is conducted as below:
(§2) HEK-Blue™ hTLR7 (Invivogen, 80,000 cells per well) or HEK-Blue™ hTLR8 (Invivogen, 60,000 cells per well) were added to the 96-well cell culture plate, followed by adding of the test compound. The final concentration of the test compound in the medium ranged from […], and was incubated for 16 to 22 hours. According to the manufacturer's instructions, the HEK-Blue assay reagent Quanti-blue (Invivogen) was used to measure SEAP levels in cell media. Optical density at 650 nm (OD650) was measured by Neo2 multifunction plate reader (Bio-tek). The half effective concentration (EC50) was calculated using GraphPad Prism.

[2] = target: T2, human TLR8 (Homo sapiens, UniProt Q9NR97); assay: HEK-Blue hTLR8 SEAP reporter gene agonist assay; type: cell-based; details: HEK-Blue hTLR8 cells, 16 to 22 hours incubation
T2 construct: host or cells: HEK-Blue hTLR8 (HEK293-derived reporter cells)
T2 sequence (Q9NR97 27-1041): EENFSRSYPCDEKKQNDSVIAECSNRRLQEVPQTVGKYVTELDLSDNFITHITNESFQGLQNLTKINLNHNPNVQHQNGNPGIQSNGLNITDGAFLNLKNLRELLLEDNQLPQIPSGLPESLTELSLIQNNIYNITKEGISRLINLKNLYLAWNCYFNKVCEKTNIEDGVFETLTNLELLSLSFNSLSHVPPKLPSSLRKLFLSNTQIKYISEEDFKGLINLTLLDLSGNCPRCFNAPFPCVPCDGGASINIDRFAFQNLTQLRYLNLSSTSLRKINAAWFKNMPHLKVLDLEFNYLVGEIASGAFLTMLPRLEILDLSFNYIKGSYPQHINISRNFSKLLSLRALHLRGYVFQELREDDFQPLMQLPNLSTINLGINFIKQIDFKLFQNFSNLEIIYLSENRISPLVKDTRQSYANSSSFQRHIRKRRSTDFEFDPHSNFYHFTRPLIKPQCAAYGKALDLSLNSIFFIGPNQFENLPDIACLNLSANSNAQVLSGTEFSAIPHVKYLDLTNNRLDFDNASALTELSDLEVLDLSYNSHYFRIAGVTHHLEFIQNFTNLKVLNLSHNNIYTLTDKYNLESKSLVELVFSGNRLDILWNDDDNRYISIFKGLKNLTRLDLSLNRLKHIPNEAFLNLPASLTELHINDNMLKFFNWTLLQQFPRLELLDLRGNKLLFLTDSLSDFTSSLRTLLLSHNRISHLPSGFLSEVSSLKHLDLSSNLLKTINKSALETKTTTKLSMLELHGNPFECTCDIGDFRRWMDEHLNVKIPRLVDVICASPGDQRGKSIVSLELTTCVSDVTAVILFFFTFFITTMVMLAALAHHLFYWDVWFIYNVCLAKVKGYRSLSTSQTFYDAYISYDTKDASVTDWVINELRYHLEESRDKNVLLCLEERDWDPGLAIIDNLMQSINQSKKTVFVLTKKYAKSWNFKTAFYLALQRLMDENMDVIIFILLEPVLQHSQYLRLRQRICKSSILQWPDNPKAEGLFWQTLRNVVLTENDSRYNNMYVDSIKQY
Experimental: as §1, §2

Row | Structure (SMILES) | EC50 [1] [nM] | EC50 [2] [nM]
1 | CCC[C@@H](C)Nc1nc(N)nc2ccn(Cc3ccc(CN4CCN(C)CC4)cc3OC)c(=O)c12 [Compound I-179, (R)-2-amino-6-(2-methoxy-4-((4-methylpiperazin-1-yl)methyl)benzyl)-4-(pentan-2-ylamino)pyrido[4,3-d]pyrimidin-5(6H)-one] | 91 | 58
2 | CCC[C@@H](C)Nc1nc(N)nc2ccn(Cc3ccc(C(=O)N4CC5CC(C4)N5)cc3)c(=O)c12 [Compound I-151, 6-(4-(3,6-diazabicyclo[3.1.1]heptane-3-carbonyl)benzyl)-2-amino-4-(((R)-pentan-2-yl)amino)pyrido[4,3-d]pyrimidin-5(6H)-one] | 80 | 30
3 | CCC[C@@H](C)Nc1nc(N)nc2ccn(Cc3ccc(C(=O)N4CCN(C(C)C)CC4)cc3OC)c(=O)c12 [Compound I-183, (R)-2-amino-6-(4-(4-isopropylpiperazine-1-carbonyl)-2-methoxybenzyl)-4-(pentan-2-ylamino)pyrido[4,3-d]pyrimidin-5(6H)-one] | 91 | 83
4 | CCC[C@@H](CO)Nc1nc(N)nc2ccn(Cc3ccc(CN4CCN(CCCCCCN)CC4)cc3OC)c(=O)c12 [Compound I-217, (S)-2-amino-6-(4-((4-(6-aminohexyl)piperazin-1-yl)methyl)-2-methoxybenzyl)-4-((1-h hydroxypentan-2-yl)amino)pyrido[4,3-d]pyrimidin-5(6H)-one] | 100 | 35
5 | CCCCNc1nc(N)nc2ccn(Cc3ccc(CN4CCCC4)cc3)c(=O)c12 [Compound I-1, 2-amino-4-(butylamino)-6-(4-(pyrrolidin-1-ylmethyl)benzyl)pyrido[4,3-d]pyrimidin-5(6H)-one] | 81 | 58
6 | CCCCNc1nc(N)nc2ccn(Cc3ccc(C(=O)N4CCNCC4)cc3)c(=O)c12 [Compound I-14, 2-amino-4-(butylamino)-6-(4-(piperazine-1-carbonyl)benzyl)pyrido[4,3-d]pyrimidin-5(6H)-one] | 85 | 77
7 | CCC[C@@H](C)Nc1nc(N)nc2ccn(Cc3ccc(CNC)cc3OC)c(=O)c12 [Compound I-198, (R)-2-amino-6-(2-methoxy-4-((methylamino)methyl)benzyl)-4-(pentan-2-ylamino)pyrido[4,3-d]pyrimidin-5(6H)-one] | 100 | 5
8 | CCC[C@@H](C)Nc1nc(N)nc2ccn(Cc3ccc(CN4CCNCC4)cc3OC)c(=O)c12 [Compound I-184, (R)-2-amino-6-(2-methoxy-4-(piperazin-1-ylmethyl)benzyl)-4-(pentan-2-ylamino)pyrido[4,3-d]pyrimidin-5(6H)-one] | 96 | 107
9 | CCC[C@@H](C)Nc1nc(N)nc2ccn(Cc3ccc(CN4CCN(CCN)CC4)cc3OC)c(=O)c12 [Compound I-213, (R)-2-amino-6-(4-((4-(2-aminoethyl)piperazin-1-yl)methyl)-2-methoxybenzyl)-4-(pentan-2-ylamino)pyrido[4,3-d]pyrimidin-5(6H)-one] | 100 | 9

Now those with a lower EC50 [1], led by results:

Row | EC50 [1] [nM] | EC50 [2] [nM] | Structure (SMILES)
10 | 68 | 47 | CCCCNc1nc(N)nc2ccn(Cc3ccc(CCN(C)C)cc3)c(=O)c12 [Compound I-90, 2-amino-4-(butylamino)-6-(4-(2-(dimethylamino)ethyl)benzyl)pyrido[4,3-d]pyrimidin-5(6H)-one]
11 | 55 | 49 | CCC[C@@H](C)Nc1nc(N)nc2ccn(Cc3ccc(C(=O)N4CCNCC4)cc3)c(=O)c12 [Compound I-117, (R)-2-amino-4-(pentan-2-ylamino)-6-(4-(piperazine-1-carbonyl)benzyl)pyrido[4,3-d]pyrimidin-5(6H)-one]
12 | 40 | 60 | CCC[C@@H](C)Nc1nc(N)nc2ccn(Cc3ccc(CN(CCC)CCO)cc3OC)c(=O)c12 [Compound I-165, (R)-2-amino-6-(4-(((2-hydroxyethyl)(propyl)amino)methyl)-2-methoxybenzyl)-4-(pentan-2-ylamino)pyrido[4,3-d]pyrimidin-5(6H)-one]
13 | 38 | 12 | CCC[C@@H](C)Nc1nc(N)nc2ccn(Cc3ccc(C(=O)N4CCNCC4)cc3OC)c(=O)c12 [Compound I-180, (R)-2-amino-6-(2-methoxy-4-(piperazine-1-carbonyl)benzyl)-4-(pentan-2-ylamino)pyrido[4,3-d]pyrimidin-5(6H)-one]
14 | 31 | 1 | CCC[C@@H](CO)Nc1nc(N)nc2ccn(Cc3ccc(CN(C)C)cc3OC)c(=O)c12 [Compound I-195, (S)-2-amino-6-(4-((dimethylamino)methyl)-2-methoxybenzyl)-4-((1-hydroxypentan-2-yl)amino)pyrido[4,3-d]pyrimidin-5(6H)-one]
15 | 30 | 30 | CCC[C@@H](C)Nc1nc(N)nc2ccn(Cc3ccc(CN(CCO)CCO)cc3OC)c(=O)c12 [Compound I-166, (R)-2-amino-6-(4-((bis(2-hydroxyethyl)amino)methyl)-2-methoxybenzyl)-4-(pentan-2-ylamino)pyrido[4,3-d]pyrimidin-5(6H)-one]
16 | 30 | 7 | CCC[C@@H](C)Nc1nc(N)nc2ccn(Cc3ccc(C(=O)N4CC5CC(C4)N5)cc3OC)c(=O)c12 [Compound I-181, 6-(4-(3,6-diazabicyclo[3.1.1]heptane-3-carbonyl)-2-methoxybenzyl)-2-amino-4-(((R)-pentan-2-yl)amino)pyrido[4,3-d]pyrimidin-5(6H)-one]
17 | 20 | 20 | CCC[C@@H](C)Nc1nc(N)nc2ccn(Cc3ccc(CN(C)CCO)cc3OC)c(=O)c12 [Compound I-160, (R)-2-amino-6-(4-(((2-hydroxyethyl)(methyl)amino)methyl)-2-methoxybenzyl)-4-(pentan-2-ylamino)pyrido[4,3-d]pyrimidin-5(6H)-one]
18 | 10 | 4 | CCC[C@@H](CO)Nc1nc(N)nc2ccn(Cc3ccc(CN4CCCC4)cc3OC)c(=O)c12 [Compound I-158, (S)-2-amino-4-((1-hydroxypentan-2-yl)amino)-6-(2-methoxy-4-(pyrrolidin-1-ylmethyl)benzyl)pyrido[4,3-d]pyrimidin-5(6H)-one]
